Measurements taken from the Kinase Knowledgebase extract (Sharma et al. 2016).

Assays:
CDK2 (human) = CDK2 (human) (UniProt P24941); test: Enzyme Assay
MAPK14 (human) = MAPK14 (human) (UniProt Q16539); test: Inhibition of MAPK14 Kinase Activity
EGFR (human) = EGFR (human) (UniProt P00533)
Sequence of EGFR (human) (P00533 whole entry, looked up): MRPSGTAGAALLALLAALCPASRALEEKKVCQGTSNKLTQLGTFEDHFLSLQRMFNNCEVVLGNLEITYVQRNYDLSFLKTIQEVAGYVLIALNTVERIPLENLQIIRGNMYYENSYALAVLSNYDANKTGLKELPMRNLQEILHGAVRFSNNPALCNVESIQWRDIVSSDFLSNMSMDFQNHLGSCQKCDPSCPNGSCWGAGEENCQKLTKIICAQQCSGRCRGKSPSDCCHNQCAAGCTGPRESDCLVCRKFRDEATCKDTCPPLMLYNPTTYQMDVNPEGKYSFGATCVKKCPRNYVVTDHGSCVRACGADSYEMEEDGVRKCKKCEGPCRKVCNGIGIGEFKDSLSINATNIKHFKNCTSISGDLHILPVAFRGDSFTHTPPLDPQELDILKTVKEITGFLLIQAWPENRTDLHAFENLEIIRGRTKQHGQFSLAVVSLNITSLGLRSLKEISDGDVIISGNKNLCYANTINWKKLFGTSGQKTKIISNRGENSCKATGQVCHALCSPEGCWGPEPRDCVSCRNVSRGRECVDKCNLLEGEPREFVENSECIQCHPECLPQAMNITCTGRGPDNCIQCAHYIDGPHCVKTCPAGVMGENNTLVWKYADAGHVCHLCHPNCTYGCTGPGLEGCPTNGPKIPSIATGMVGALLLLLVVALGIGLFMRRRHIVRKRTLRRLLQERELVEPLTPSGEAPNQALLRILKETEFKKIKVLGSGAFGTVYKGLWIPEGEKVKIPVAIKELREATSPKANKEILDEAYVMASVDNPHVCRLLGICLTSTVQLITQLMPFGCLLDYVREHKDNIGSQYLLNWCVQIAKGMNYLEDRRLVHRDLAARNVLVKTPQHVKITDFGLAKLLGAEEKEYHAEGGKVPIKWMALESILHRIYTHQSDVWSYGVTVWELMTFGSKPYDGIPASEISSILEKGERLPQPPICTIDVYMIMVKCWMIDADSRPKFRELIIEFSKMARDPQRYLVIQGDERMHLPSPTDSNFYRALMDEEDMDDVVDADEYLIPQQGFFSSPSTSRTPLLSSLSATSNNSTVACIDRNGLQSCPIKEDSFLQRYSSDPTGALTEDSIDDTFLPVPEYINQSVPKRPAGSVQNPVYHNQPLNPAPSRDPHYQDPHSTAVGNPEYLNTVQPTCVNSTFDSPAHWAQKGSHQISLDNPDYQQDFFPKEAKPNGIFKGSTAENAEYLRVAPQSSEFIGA

Sequence of MAPK14 (human) (Q16539 whole entry, looked up): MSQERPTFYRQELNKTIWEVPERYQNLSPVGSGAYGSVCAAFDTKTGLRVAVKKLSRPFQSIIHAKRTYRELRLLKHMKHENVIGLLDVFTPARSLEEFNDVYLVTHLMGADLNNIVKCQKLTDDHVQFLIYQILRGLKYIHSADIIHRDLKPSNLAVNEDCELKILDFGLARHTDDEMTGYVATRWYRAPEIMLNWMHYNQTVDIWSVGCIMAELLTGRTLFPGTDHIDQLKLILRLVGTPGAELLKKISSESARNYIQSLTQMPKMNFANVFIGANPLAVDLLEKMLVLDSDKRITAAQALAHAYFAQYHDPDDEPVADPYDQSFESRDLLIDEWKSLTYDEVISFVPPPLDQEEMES

IC50 (CDK2 (human)) [µM] | IC50 (MAPK14 (human)) [µM] | IC50 (EGFR (human)) [µM] | Compound
≤ 10 |  |  | CCCS(=O)(=O)Nc1ccc(F)c(C(OC)c2c[nH]c3ncc(OC)cc23)c1F (stereo not given)
≤ 10 |  |  | OCCOc1ccc(F)c(Cc2c[nH]c3ncc(-c4cccnc4)cc23)c1F
≤ 10 | ≤ 10 |  | CCCS(=O)(=O)Nc1ccc(F)c(C(=O)c2c[nH]c3ncc(OC)cc23)c1F
 | ≤ 10 | ≤ 10 | Nc1cccc(-c2cnc3[nH]cc(C(=O)c4cccc(O)c4F)c3c2)c1
 | ≤ 10 | ≤ 10 | Nc1cccc(-c2cnc3[nH]cc(C(=O)c4cc(O)ccc4F)c3c2)c1
 | ≤ 10 | ≤ 10 | CC(=O)Nc1cccc(-c2cnc3[nH]cc(C(=O)c4cc(O)ccc4F)c3c2)c1
 | ≤ 10 | ≤ 10 | Nc1cccc(-c2cnc3[nH]cc(C(=O)c4cccc(O)c4)c3c2)c1
≤ 10 |  |  | CCCC(=O)Nc1ccc(F)c(Cc2c[nH]c3ncc(-c4cccnc4)cc23)c1F
 | ≤ 10 | ≤ 10 | O=C(c1cccc(O)c1)c1c[nH]c2ncc(Nc3ccccc3)cc12
